Patent publication US11696903B2, “Compounds and methods for scavenging dicarbonyl electrophiles” (VANDERBILT UNIVERSITY, priority 2019, dated 2023)

System: LG-histone adducts in A549 cells
Assay: LG-lysyl adduct formation on histones in A549 cells (LC/ESI/MS/MS)
Format: cell-based, human
Settings: stimulated A549, 30, 300 or 1000 μM EtSA, 20 μM AA 1 h
Experimental: FIGS. 11A, 11B, 11C, 11D, 11E, and 11F are a series of graphs showing that LG-lysine adducts of histones are found in cells and tissue, dependent on COX-2 activity. RAW264.7 mouse macrophage (A) and A549 human lung carcinoma (C) cells were stimulated to express COX-2, then given 20 μM arachidonic acid (AA) or vehicle. A subgroup of cells was preincubated 45 min with 50 μM indomethacin. As a measure of COX activity, PGE2 was determined by GC/MS from cell media prior to lysis (B and D). Nuclei were isolated, and histones were extracted and digested to individual amino acids prior to LC/EST/MS/MS analysis. *, p<0.05; ***, p<0.001 by ANOVA followed by Tukey's post-test (n≥5). (E). Histones were extracted from nuclei of rat liver, and analyzed as above for LG-lactam adduct. COX-2 protein was analyzed by Western blotting and plotted against lactam adduct levels. Each point corresponds to 1 liver, and shown is the line of regression (r^2=0.7237). Pearson r=0.8507; two-tailed p=0.0152. […]
(A). […] Histone proteins were analyzed by LC/ESI/MS/MS for LG-lysyl lactam adduct, n=2. (B) Stimulated A549 cells were pretreated with 30, 300, or 1000 μM EtSA prior to 1 h with 20 μM AA, and histones analyzed for LG-lysyl adduct. *, p<0.05 by one-way ANOVA followed by Dunnett's multiple comparisons post-test (n=3-5). […] Media was analyzed by GC/MS for PGE2 (n=3). […]

CCc1ccc(O)c(CN)c1 [EtHOBA, 5-ethyl-2-hydroxybenzylamine]
LG-histone adduct formation: inhibited
